Test results taken from patent publication EP4578856A1, “HETEROCYCLIC COMPOUND” (Ubience Inc., priority 2022, dated 2024).

What was measured:
human ALK kinase = molecular target: T1, human ALK kinase (Homo sapiens, UniProt Q9UM73); assay: ALK kinase inhibitory activity, mobility shift assay (MSA, Carna Biosciences); assay type: biochemical; conditions: inhibition rate at 10 nM
T1 construct: GST (N); purchased Carna Biosciences, Inc; host or cells: baculovirus expression system
Protocol: The ALK kinase inhibitory activity was measured using a mobility shift assay (MSA) provided by Carna Biosciences, Inc.
The test compound was dissolved in DMSO to prepare a 1 µM solution. The solution was further diluted 25 times with an assay buffer (20 mmol/L HEPES, 0.01%Triton (registered trademark) X-100, 1 mmol/L DTT, pH 7.5) to obtain a test compound solution.
The human ALK kinase was expressed by fusing the cytoplasmic domain (1058 to 1620 amino acids of Accession No. BAG 10812.1) with GST at the N-terminus using the baculovirus expression system. The GST-ALK was purified by glutathione sepharose chromatography. A 4-fold concentration substrate (Srctide, 1000 nmol/L)/ATP (50 µmol/L)/metal solution (Mg, 5 mmol/L) was prepared with kit buffer (20 mmol/L HEPES, 0.01% Triton (registered trademark) X-100, 5 mmol/L DTT, pH 7.5). A 2-fold concentration kinase solution was prepared with assay buffer.
In the same manner as described in Test Example 1, tests and evaluation of inhibitory activity and data analysis were performed.

FAK protein = FAK protein (Homo sapiens, UniProt Q05397); assay: FAK kinase inhibitory activity, mobility shift assay (MSA, Carna Biosciences); assay type: biochemical; set-up: GST (N); purchased Carna Biosciences, Inc; host or cells: baculovirus expression system; conditions: inhibition rate at 30 nM; reaction time 5 hours
Chain of FAK protein (Q05397 376-1052): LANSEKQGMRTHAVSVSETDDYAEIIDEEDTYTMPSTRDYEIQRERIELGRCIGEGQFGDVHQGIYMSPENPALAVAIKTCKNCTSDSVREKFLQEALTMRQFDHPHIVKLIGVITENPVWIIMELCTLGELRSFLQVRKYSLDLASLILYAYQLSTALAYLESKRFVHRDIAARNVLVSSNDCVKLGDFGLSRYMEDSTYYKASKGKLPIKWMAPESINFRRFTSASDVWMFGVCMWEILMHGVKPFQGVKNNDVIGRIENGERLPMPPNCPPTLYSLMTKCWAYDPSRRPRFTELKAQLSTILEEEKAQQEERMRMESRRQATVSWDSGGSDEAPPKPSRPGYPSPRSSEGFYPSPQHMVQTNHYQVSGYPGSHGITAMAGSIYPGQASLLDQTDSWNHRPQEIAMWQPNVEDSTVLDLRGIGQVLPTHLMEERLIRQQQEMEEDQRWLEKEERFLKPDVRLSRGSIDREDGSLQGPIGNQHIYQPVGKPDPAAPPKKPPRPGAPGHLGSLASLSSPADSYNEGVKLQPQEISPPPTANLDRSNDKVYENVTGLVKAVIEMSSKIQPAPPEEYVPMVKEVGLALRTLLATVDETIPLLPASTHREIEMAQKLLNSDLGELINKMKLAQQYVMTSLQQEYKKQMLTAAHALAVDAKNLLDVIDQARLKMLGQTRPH
Protocol: The FAK kinase inhibitory activity was measured using a mobility shift assay (MSA) provided by Carna Biosciences, Inc.
The test compound was dissolved in DMSO to prepare a 3 µM solution. The solution was further diluted 25 times with an assay buffer (20 mmol/L HEPES, 0.01%Triton (registered trademark) X-100, 1 mmol/L DTT, pH 7.5) to obtain a test compound solution.
Incomplete human FAK kinase was expressed by fusing 376 to 1052 amino acids of Accession No. NP_722560.1 with GST at the N-terminus using the baculovirus expression system. The GST-FAK was purified by glutathione sepharose chromatography. A 4-fold concentration substrate (Blk/Lyntide, 1000 nmol/L)/ATP (25 µmol/L)/metal solution (Mg, 5 mmol/L) was prepared with kit buffer (20 mmol/L HEPES, 0.01% Triton (registered trademark) X-100, 5 mmol/L DTT, pH 7.5). A 2-fold concentration kinase solution was prepared with assay buffer.
In the same manner as described in Test Example 1, tests and evaluation of inhibitory activity and data analysis were performed. The reaction time was set to 5 hours. […]

T1 sequence (Q9UM73 1058-1620): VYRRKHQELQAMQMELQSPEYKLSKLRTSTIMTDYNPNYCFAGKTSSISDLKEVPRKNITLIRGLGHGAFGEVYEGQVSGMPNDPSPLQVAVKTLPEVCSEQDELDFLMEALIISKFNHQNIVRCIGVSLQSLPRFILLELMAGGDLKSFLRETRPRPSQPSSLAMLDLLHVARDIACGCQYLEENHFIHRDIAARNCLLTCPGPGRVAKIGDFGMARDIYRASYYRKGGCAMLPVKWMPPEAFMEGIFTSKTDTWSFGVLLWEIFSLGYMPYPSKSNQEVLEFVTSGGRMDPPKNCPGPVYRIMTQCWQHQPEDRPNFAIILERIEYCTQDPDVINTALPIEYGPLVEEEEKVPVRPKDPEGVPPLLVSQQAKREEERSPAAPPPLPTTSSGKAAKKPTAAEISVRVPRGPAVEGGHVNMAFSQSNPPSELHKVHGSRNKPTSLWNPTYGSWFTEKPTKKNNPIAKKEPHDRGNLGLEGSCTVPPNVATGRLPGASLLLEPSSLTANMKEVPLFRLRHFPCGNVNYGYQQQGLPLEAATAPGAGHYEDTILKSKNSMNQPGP

SMILES | inhibition at 0.01 µM (human ALK kinase) | inhibition at 0.03 µM (FAK protein)
COC[C@H]1CN[C@H](C)CN1CC(=O)N1CC(C)(C)c2nc(CN(C)CCOCCOCCNC(=O)CN3CCC(c4cc(OC(C)C)c(Nc5ncc(Cl)c(Nc6ccccc6S(=O)(=O)C(C)C)n5)cc4C)CC3)c(Cc3ccc(F)cc3)cc21 [Example 92, 2-(4-(4-((5-Chloro-4-((2-(isopropylsulfonyl)phenyl)amino)pyrimidin-2-yl)amino)-5-isopropoxy-2-methylphenyl)piperidin-1-yl)-N-(2-(2-(2-(((6-(4-fluorobenzyl)-1-(2-((2R,5R)-2-(methoxymethyl)-5-methylpiperazin-1-yl)acetyl)-3,3-dimethyl-2,3-dihydro-1H-pyrrolo[3,2-b]pyridin-5-yl)methyl) (methyl)amino)ethoxy)ethoxy)ethyl) acetamide] | ≥ 75% | –
COC[C@H]1CN[C@H](C)CN1CC(=O)N1CC(C)(C)c2ncc(Cc3ccccc3OCCOCCOCCOCCOCCNC(=O)CN3CCC(c4cc(OC(C)C)c(Nc5ncc(Cl)c(Nc6ccccc6S(=O)(=O)C(C)C)n5)cc4C)CC3)cc21 [Example 100, 2-(4-(4-((5-Chloro-4-((2-(isopropylsulfonyl)phenyl)amino)pyrimidin-2-yl)amino)-5-isopropoxy-2-methylphenyl)piperidin-1-yl)-N-(14-(2-((1-(2-((2R,5R)-2-(methoxymethyl)-5-methylpiperazin-1-yl)acetyl)-3,3-dimethyl-2,3-dihydro-1H-pyrrolo[3,2-b]pyridin-6-yl)methyl)phenoxy)-3,6,9,12-tetraoxatetradecyl)acetamide] | ≥ 75% | –
C[C@@H]1CN(CC(=O)N2CC(C)(C)c3ncc(Cc4ccc(F)cc4)cc32)[C@@H](CN(C)CCOCC(=O)Nc2ccc(Nc3ncc(C(F)(F)F)c(NCc4cccc(S(C)(=O)=O)c4)n3)cc2)CN1 [Example 109, 2-(2-((((2R,5R)-1-(2-(6-(4-Fluorobenzyl)-3,3-dimethyl-2,3-dihydro-1H-pyrrolo[3,2-b]pyridin-1-yl)-2-oxoethyl)-5-methylpiperazin-2-yl)methyl)(methyl)amino)ethoxy)-N-(4-((4-((3-(methylsulfonyl)benzyl)amino)-5-(trifluoromethyl)pyrimidin-2-yl)amino)phenyl) acetamide] | – | ≥ 75%
COC[C@H]1CN[C@H](C)CN1CC(=O)N1CC(C)(C)c2nc(CN3CCN(CCOCCOCC(=O)Nc4ccc(Nc5ncc(C(F)(F)F)c(NCc6cccc(S(C)(=O)=O)c6)n5)cc4)CC3)c(Cc3ccc(F)cc3)cc21 [Example 116, 2-(2-(2-(4-((6-(4-Fluorobenzyl)-1-(2-((2R,5R)-2-(methoxymethyl)-5-methylpiperazin-1-yl)acetyl)-3,3-dimethyl-2,3-dihydro-1H-pyrrolo[3,2-b]pyridin-5-yl)methyl)piperazin-1-yl)ethoxy)ethoxy)-N-(4-((4-((3-(methylsulfonyl)benzyl)amino)-5-(trifluoromethyl)pyrimidin-2-yl)amino)phenyl)acetamide] | – | 50 to 75%
COC[C@H]1CN[C@H](C)CN1CC(=O)N1CC(C)(C)c2ncc(Cc3ccccc3OCCN3CCN(CCOCCOCCOCC(=O)Nc4ccc(Nc5ncc(C(F)(F)F)c(NCc6cccc(S(C)(=O)=O)c6)n5)cc4)CC3)cc21 [Example 122, 2-(2-(2-(2-(4-(2-(2-((1-(2-((2R,5R)-2-(Methoxymethyl)-5-methylpiperazin-1-yl)acetyl)-3,3-dimethyl-2,3-dihydro-1H-pyrrolo[3,2-b]pyridin-6-yl)methyl)phenoxy)ethyl)piperazin-1-yl)ethoxy)ethoxy)ethoxy)-N-(4-((4-((3-(methylsulfonyl)benzyl)amino)-5-(trifluoromethyl)pyrimidin-2-yl)amino)phenyl)acetamide] | – | 50 to 75%
COC[C@H]1CN[C@H](C)CN1CC(=O)N1CC(C)(C)c2ncc(Cc3cccc(OCCN4CCN(CCOCCOCCOCCOCC(=O)Nc5ccc(Nc6ncc(C(F)(F)F)c(NCc7cccc(S(C)(=O)=O)c7)n6)cc5)CC4)c3)cc21 [Example 128, 14-(4-(2-(3-((1-(2-((2R,5R)-2-(Methoxymethyl)-5-methylpiperazin-1-yl)acetyl)-3,3-dimethyl-2,3-dihydro-1H-pyrrolo[3,2-b]pyridin-6-yl)methyl)phenoxy)ethyl)piperazin-1-yl)-N-(4-((4-((3-(methylsulfonyl)benzyl)amino)-5-(trifluoromethyl)pyrimidin-2-yl)amino)phenyl)-3,6,9,12-tetraoxatetradecanamide] | – | 50 to 75%

More lines, now with the values ahead:

inhibition at 0.01 µM (human ALK kinase) | inhibition at 0.03 µM (FAK protein) | SMILES
50 to 75% | – | Cc1cc(Nc2ncc(Cl)c(Nc3ccccc3S(=O)(=O)C(C)C)n2)c(OC(C)C)cc1C1CCN(CC(=O)NCCOCCN(C)C[C@H]2CN[C@H](C)CN2CC(=O)N2CC(C)(C)c3ncc(Cc4ccc(F)cc4)cc32)CC1 [Example 85, 2-(4-(4-((5-Chloro-4-((2-(isopropylsulfonyl)phenyl)amino)pyrimidin-2-yl)amino)-5-isopropoxy-2-methylphenyl)piperidin-1-yl)-N-(2-(2-((((2R,5R)-1-(2-(6-(4-fluorobenzyl)-3,3-dimethyl-2,3-dihydro-1H-pyrrolo[3,2-b]pyridin-1-yl)-2-oxoethyl)-5-methylpiperazin-2-yl)methyl) (methyl)amino)ethoxy)ethyl)acetamide]
50 to 75% | – | Cc1cc(Nc2ncc(Cl)c(Nc3ccccc3S(=O)(=O)C(C)C)n2)c(OC(C)C)cc1C1CCN(CC(=O)NCCOCCOCCOCCOCCOCCN(C)C[C@H]2CN[C@H](C)CN2CC(=O)N2CC(C)(C)c3ncc(Cc4ccc(F)cc4)cc32)CC1 [Example 89, 2-(4-(4-((5-Chloro-4-((2-(isopropylsulfonyl)phenyl)amino)pyrimidin-2-yl)amino)-5-isopropoxy-2-methylphenyl)piperidin-1-yl)-N-(1-((2R,5R)-1-(2-(6-(4-fluorobenzyl)-3,3-dimethyl-2,3-dihydro-1H-pyrrolo[3,2-b]pyridin-1-yl)-2-oxoethyl)-5-methylpiperazin-2-yl)-2-methyl-5,8,11,14,17-pentaoxa-2-azanonadecan-19-yl)acetamide]
≥ 75% | – | COC[C@H]1CN[C@H](C)CN1CC(=O)N1CC(C)(C)c2nc(CN(C)CCOCCOCCOCCOCCOCCNC(=O)CN3CCC(c4cc(OC(C)C)c(Nc5ncc(Cl)c(Nc6ccccc6S(=O)(=O)C(C)C)n5)cc4C)CC3)c(Cc3ccc(F)cc3)cc21 [Example 95, 2-(4-(4-((5-Chloro-4-((2-(isopropylsulfonyl)phenyl)amino)pyrimidin-2-yl)amino)-5-isopropoxy-2-methylphenyl)piperidin-1-yl)-N-(1-(6-(4-fluorobenzyl)-1-(2-((2R,5R)-2-(methoxymethyl)-5-methylpiperazin-1-yl)acetyl)-3,3-dimethyl-2,3-dihydro-1H-pyrrolo[3,2-b]pyridin-5-yl)-2-methyl-5,8,11,14,17-pentaoxa-2-azanonadecan-19-yl)acetamide]
≥ 75% | – | COC[C@H]1CN[C@H](C)CN1CC(=O)N1CC(C)(C)c2ncc(Cc3cccc(OCCOCCOCCOCCOCCOCCNC(=O)CN4CCC(c5cc(OC(C)C)c(Nc6ncc(Cl)c(Nc7ccccc7S(=O)(=O)C(C)C)n6)cc5C)CC4)c3)cc21 [Example 107, 2-(4-(4-((5-Chloro-4-((2-(isopropylsulfonyl)phenyl)amino)pyrimidin-2-yl)amino)-5-isopropoxy-2-methylphenyl)piperidin-1-yl)-N-(17-(3-((1-(2-((2R,5R)-2-(methoxymethyl)-5-methylpiperazin-1-yl)acetyl)-3,3-dimethyl-2,3-dihydro-1H-pyrrolo[3,2-b]pyridin-6-yl)methyl)phenoxy)-3,6,9,12,15-pentaoxaheptadecyl)acetamide]
